Results reported in patent US7906520B2, “Methods for treating pain” (The General Hospital Corporation, priority 2003, dated 2011).

Key:
[1] = system: formalin injection into the hindpaw; experiment: Formalin test: flinching behavior and cFos immunoreactivity in dorsal horn; type: in vivo, rat
Description: DAHP (180 mg/kg) was injected i.p. one hour before injection of formalin into the hindpaw. Flinches were counted for one hour starting right after formalin injection. FIG. 24A is a series of photo micrographs showing cFos immunoreactivity in ipsilateral dorsal horn neurons two hours after formalin injection in DAHP and vehicle-treated rats. FIG. 24B is a bar graph quantifying the number of cFos immunoreactive cell bodies observed under each condition.

naïve rats = experiment: Response to tactile and heat stimuli in naïve rats; type: in vivo, rat; conditions: non-injured animals
Description: FIGS. 13A and 13B are a series of graphs showing the effects of DAHP on the response to tactile (13A) and heat stimuli (13B) in naïve rats. A single dose of DAHP (180 mg/kg i.p.) or vehicle was injected at time “zero”.
Hypersensitivity was induced using the CFA model of paw inflammation. In these experiments, BH4 was injected at time “zero” after measurement of baseline paw withdrawal latency.

[2] = DAHP pharmacokinetics in plasma and CSF; type: in vivo, rat; conditions: single dose 180 mg/kg i.p.
Description: FIGS. 14A-14C represent a series of graphs showing pharmacokinetic features of DAHP and the pharmacokinetic-pharmacodynamic relationship. […] In addition, concentrations of DAHP in cerebrospinal fluid (CSF) were determined at an early and late time point. In FIG. 14B, plasma concentrations were fitted according to a one-compartment PK model with first order input and first order elimination. PK parameters are presented where Cmax is the maximum concentration, tmax the time of the maximum concentration, k01 is the absorption rate constant, t1/2abs. represents the absorption half-life, k10 is the elimination rate constant, t1/2 el is the elimination half-life, and Cl is the clearance. In FIG. 14C, pooled plasma concentration and effect data of the CFA model were used to assess the PK/PD relationship employing a standard sigmoidal Emax model.

BH4 biosynthesis = experiment: Tissue biopterin and neopterin levels after SNI (LC-MS/MS); type: in vivo; conditions: with DAHP administration
Description: FIG. 30 is a series of bar graphs quantifying the levels of the BH4 metabolites biopterin and neopterin in the DH, DRG, and ScN following SNI surgery with and without DAHP treatment, compared to control.
Using the preferred method, tissue neopterin and biopterin levels were determined with a liquid chromatography tandem mass spectrometry method. After acidic pH oxidation with iodine according to Fukushima and Nixon (Methods Enzymol. 66: 429-436, 1980) tissues were extracted by solid phase extraction employing Oasis MCX extraction cartridges and concentrations of total biopterin, neopterin and the internal standard rhamnopterin were determined by liquid chromatography coupled to tandem mass spectrometry. HPLC analysis was done under gradient conditions using a Nucleosil C8 column. MS/MS analyses were performed on an API 4000 Q TRAP triple quadrupole mass spectrometer with a Turbo Ion Spray source. Precursor-to-product ion transitions of m/z 236 192 for biopterin, m/z 252 192 for neopterin, m/z 265 192 for rhamnopterin were used for the MRM. Concentrations of the calibration standards, quality controls and samples were evaluated by Analyst software 1.4 (Applied Biosystems). Linearity of the calibration curve was proven from 0.1-50 ng/ml. The coefficient of correlation for all measured sequences was at least 0.99. The intra-day and inter-day variability was <10%.

dorsal horn neurons = experiment: TUNEL staining of apoptotic profiles in L4/L5 dorsal horn after SNI; type: in vivo; conditions: DAHP 180 mg/kg/day i.p., 7 days after SNI
Description: FIG. 25 is a bar graph showing the number of apoptotic cell profiles, using TUNEL staining, observed in the L4/L5 dorsal horn 7 days after SNI surgery of animals treated with either 180 mg/kg/day DAHP or vehicle control. Apoptotic neurons were detected by in situ TUNEL labeling and counted by a blinded observer.

GTPCH-1 expression = experiment: GTPCH-I in situ hybridization in DRG after SNI; type: in vivo; conditions: 14 days after SNI surgery, DAHP vs vehicle
Text: FIG. 27A is a series of photomicrographs of in situ hybridization of GTPCH-I in the ipsilateral (lesioned) and contralateral (control) dorsal root ganglia 3 days (top panel) and 14 days (bottom panel) after SNI surgery. FIG. 27B is a series of photomicrographs of GTPCH-I in situ hybridization 14 days after SNI surgery and treatment with either DAHP or vehicle control.

Nc1cc(O)nc(N)n1 [DAHP, 2,4-Diamino-6-hydroxypyrimidine]
flinching behavior in the formalin assay ([1]; single i.p. dose of 180 mg/kg): reduced the flinching behavior
c-FOS immunoreactivity in ipsilateral dorsal horn neurons ([1]; two hours after formalin, intraperitoneal DAHP, p<0.05): significantly reduced elevation
motor activity, von Frey and Hargreaves tests (naïve rats; DAHP 180 mg/kg i.p. single dose): did not result in a difference in motor activity
sedation, general level of activity (naïve rats; DAHP): no obvious signs of sedation
distribution in cerebrospinal fluid [2]: rapid distribution in the cerebrospinal fluid
plasma concentration after i.p. injection [2]: rapidly increased
biopterin increases after SNI (BH4 biosynthesis; DH, DRG, ScN): reversed in the DH and the ScN, but not the DRG
neopterin increases after SNI (BH4 biosynthesis; DRG and ScN): reversed
apoptosis of dorsal horn neurons (TUNEL) (dorsal horn neurons): protects dorsal horn neurons from apoptosis
GTPCH-1 expression in DRG (GTPCH-1 expression): does not affect GTPCH-1 expression
